# Legend:
# A431 (skin carcinoma) = experiment: MTT in vitro growth inhibition assay, A431; type: cell-based; settings: Homo sapiens; for inhibition at 25 µM: A-431, 25 µM of drug, 72 h, read-out: Percentage of Cell Growth Inhibition A431; for GI50: A-431, 72 h, 72 h drug exposure
# Excerpt: (§1) With the desired bolinaquinone analogues 12–43 in hand, we examined their cytotoxicity against a panel of 11 tumour cell lines: HT29 (colon carcinoma), U87 and SJ-G2 (glioblastoma), MCF-7 (breast carcinoma), A2780 (ovarian carcinoma), H460 (lung carcinoma), A431 (skin carcinoma), Du145 (prostate carcinoma), BE2-C (neuroblastoma), MIA (pancreatic carcinoma), SMA (spontaneous murine astrocytoma) and a normal breast cell line (MCF10A). The inclusion of the MCF-10A cell line allowed a determination of a crude measure of relative toxicity while noting that the ultimate arbiter of toxicity requires in vivo evaluation. All analogues were initially screened at a 25 µM drug concentration.
# (§2) Stock solutions were prepared as follows and stored at −20°C: drugs were stored as 40 mM solutions in DMSO. All cell lines were cultured in a humidified atmosphere 5% CO2 at 37°C. The cancer cell lines were maintained in Dulbecco's modified Eagle's medium (DMEM) (Trace Biosciences, Australia) supplemented with 10% fetal bovine serum, 10 mM sodium bicarbonate, penicillin (100 IU ml^−1), streptomycin (100 µg ml^−1) and glutamine (4 mM). The non-cancer MCF10A cell line was cultured in DMEM:F12 (1 : 1) cell culture media, 5% heat-inactivated horse serum, supplemented with penicillin (50 IU ml^−1), streptomycin (50 µg ml^−1), 20 mM Hepes, L-glutamine (2 mM), epidermal growth factor (20 ng ml^−1), hydrocortisone (500 ng ml^−1), cholera toxin (100 ng ml^−1) and insulin (10 ug ml^−1).
# (§3) Cells in logarithmic growth were transferred to 96-well plates. Cytotoxicity was determined by plating cells in duplicate in 100 µl medium at a density of 2500–4000 cells per well. On day 0 (24 h after plating), when the cells were in logarithmic growth, 100 μl of medium with or without the test agent was added to each well. After 72 h, drug exposure growth inhibitory effects were evaluated using the MTT (3-[4,5-dimethylthiazol-2-yl]-2,5-diphenyl-tetrazolium bromide) assay and the absorbance read at 540 nm. Percentage growth inhibition was determined at a fixed drug concentration of 25 µM. A value of 100% is indicative of complete cell growth inhibition. Those analogues showing appreciable percentage growth inhibition underwent further dose–response analysis allowing for the calculation of a GI50 value. This value is the drug concentration at which cell growth is 50% inhibited based on the difference between the optical density values on day 0 and those at the end of drug exposure.
# HT29 (colon carcinoma) = experiment: MTT in vitro growth inhibition assay, HT29; type: cell-based; settings: Homo sapiens; for inhibition at 25 µM: HT-29, 25 µM of drug, 72 h, read-out: Percentage of Cell Growth Inhibition HT29; for GI50: HT-29, 72 h drug exposure
# Excerpt: as §1, §2, §3
# [1] = test system: Du145 (prostate carcinoma); experiment: MTT in vitro growth inhibition assay, Du145; type: cell-based; settings: Homo sapiens; for inhibition at 25 µM: DU-145, 25 µM of drug, 72 h, read-out: Percentage of Cell Growth Inhibition Du145; for GI50: DU-145, 72 h, 72 h drug exposure
# Excerpt: as §1, §2, §3
# MCF-7 (breast carcinoma) = experiment: MTT in vitro growth inhibition assay, MCF-7; type: cell-based; settings: Homo sapiens; for inhibition at 25 µM: MCF7, 25 µM of drug, 72 h, read-out: Percentage of Cell Growth Inhibition MCF-7; for GI50: MCF7, 72 h drug exposure
# Excerpt: as §1, §2, §3
# [2] = test system: A2780 (ovarian carcinoma); experiment: MTT in vitro growth inhibition assay, A2780; type: cell-based; settings: Homo sapiens; for inhibition at 25 µM: 25 µM of drug, 72 h, read-out: Percentage of Cell Growth Inhibition A2780; for GI50: 72 h drug exposure
# Excerpt: as §1, §2, §3
# [3] = test system: SMA (spontaneous murine astrocytoma); experiment: MTT in vitro growth inhibition assay, SMA; type: cell-based; settings: Mus musculus; for inhibition at 25 µM: 25 µM of drug, 72 h, read-out: Percentage of Cell Growth Inhibition SMA; for GI50: 72 h drug exposure
# Excerpt: as §1, §2, §3
# [4] = test system: MCF10A (normal breast cell line); experiment: MTT in vitro growth inhibition assay, MCF10A; type: cell-based; settings: Homo sapiens, MCF-10A; for inhibition at 25 µM: 25 µM of drug, 72 h, read-out: Percentage of Cell Growth Inhibition MCF10A; for GI50: normal breast cell line, 72 h drug exposure
# Excerpt: as §1, §2, §3
# SJ-G2 (glioblastoma) = experiment: MTT in vitro growth inhibition assay, SJ-G2; type: cell-based; settings: for inhibition at 25 µM: 25 µM of drug, 72 h, read-out: Percentage of Cell Growth Inhibition SJ-G2; for GI50: 72 h drug exposure
# Excerpt: as §1, §2, §3
# [5] = test system: MIA (pancreatic carcinoma); experiment: MTT in vitro growth inhibition assay, MIA; type: cell-based; settings: for inhibition at 25 µM: 25 µM of drug, 72 h, read-out: Percentage of Cell Growth Inhibition MIA; for GI50: 72 h drug exposure
# Excerpt: as §1, §2, §3
# BE2-C (neuroblastoma) = experiment: MTT in vitro growth inhibition assay, BE2-C; type: cell-based; settings: Homo sapiens, BE(2)-C, 72 h; for inhibition at 25 µM: 25 µM of drug, read-out: Percentage of Cell Growth Inhibition BE2-C; for GI50: 72 h drug exposure
# Excerpt: as §1, §2, §3
# U87 (glioblastoma) = experiment: MTT in vitro growth inhibition assay, U87; type: cell-based; settings: for inhibition at 25 µM: 25 µM of drug, 72 h, read-out: Percentage of Cell Growth Inhibition U87; for GI50: 72 h drug exposure
# Excerpt: as §1, §2, §3
# H460 (lung carcinoma) = experiment: MTT in vitro growth inhibition assay, H460; type: cell-based; settings: Homo sapiens; for inhibition at 25 µM: NCI-H460, 25 µM of drug, 72 h, read-out: Percentage of Cell Growth Inhibition H460; for GI50: NCI-H460, 72 h drug exposure
# Excerpt: as §1, §2, §3
smiles,measurement,setting,value
"CCCNC1=CC(=O)C(NCCC)=C(c2cccc3ccccc23)C1=O [compound 39, 3-(Naphthalene-1-yl)-2,5-bis-(propylamino)cyclohexa-2,5-diene-1,4-dione]",inhibition at 25 µM,A431 (skin carcinoma),76 ± 3%
same,inhibition at 25 µM,HT29 (colon carcinoma),76 ± 2%
same,inhibition at 25 µM,[1],75 ± 1%
same,inhibition at 25 µM,MCF-7 (breast carcinoma),69 ± 1%
same,melting point,,134 to 137 °C
same,inhibition at 25 µM,[2],78 ± 2%
same,inhibition at 25 µM,[3],54 ± 11%
same,inhibition at 25 µM,[4],78 ± 1%
same,inhibition at 25 µM,SJ-G2 (glioblastoma),59 ± 1%
same,inhibition at 25 µM,[5],69 ± 2%
same,inhibition at 25 µM,BE2-C (neuroblastoma),73 ± 3%
same,inhibition at 25 µM,U87 (glioblastoma),75 ± 1%
same,inhibition at 25 µM,H460 (lung carcinoma),59 ± 3%
"CCCNC1=C(c2ccccc2)C(=O)C(NCCC)=C(c2cccc3ccccc23)C1=O [compound 42, 2-(Naphthalene-1-yl)-5-phenyl-3,6-bis-(propylamino)cyclohexa-2,5-diene-1,4-dione]",inhibition at 25 µM,A431 (skin carcinoma),81 ± 1%
same,inhibition at 25 µM,HT29 (colon carcinoma),71 ± 3%
same,inhibition at 25 µM,[1],70 ± 3%
same,inhibition at 25 µM,MCF-7 (breast carcinoma),77 ± 4%
same,melting point,,226 to 228 °C
same,inhibition at 25 µM,[2],79 ± 1%
same,inhibition at 25 µM,[3],56 ± 9%
same,inhibition at 25 µM,[4],76 ± 1%
same,inhibition at 25 µM,SJ-G2 (glioblastoma),52 ± 1%
same,inhibition at 25 µM,[5],76 ± 2%
same,inhibition at 25 µM,BE2-C (neuroblastoma),56 ± 4%
same,inhibition at 25 µM,U87 (glioblastoma),69 ± 4%
same,inhibition at 25 µM,H460 (lung carcinoma),63 ± 3%
"COC1=C(c2ccc3ccccc3c2)C(=O)C(OC)=C(c2cccc3ccccc23)C1=O [compound 33, 2,5-Dimethoxy-3-(naphthalene-1-yl)-6-(naphthalene-3-yl)cyclohexa-2,5-diene-2,5-diene-1,4-dione]",inhibition at 25 µM,A431 (skin carcinoma),57 ± 3%
same,GI50,A431 (skin carcinoma),23 ± 3.4 µM
same,inhibition at 25 µM,HT29 (colon carcinoma),53 ± 2%
same,GI50,HT29 (colon carcinoma),23 ± 1.2 µM
same,inhibition at 25 µM,[1],40 ± 1%
same,GI50,[1],31 µM
same,inhibition at 25 µM,MCF-7 (breast carcinoma),> 100%
same,GI50,MCF-7 (breast carcinoma),5.6 ± 0.7 µM
same,melting point,,163 to 165 °C
same,inhibition at 25 µM,[2],98 ± 0.5%
same,GI50,[2],6.9 ± 1.2 µM
same,inhibition at 25 µM,[3],81 ± 10%
same,GI50,[3],11 ± 0.33 µM
same,inhibition at 25 µM,[4],86 ± 3%
same,GI50,[4],13 ± 2.2 µM
same,inhibition at 25 µM,SJ-G2 (glioblastoma),92 ± 5%
same,GI50,SJ-G2 (glioblastoma),14 ± 1.9 µM
same,inhibition at 25 µM,[5],72 ± 2%
same,GI50,[5],15 ± 0.9 µM
same,inhibition at 25 µM,BE2-C (neuroblastoma),81 ± 1%
same,GI50,BE2-C (neuroblastoma),12 ± 0.9 µM
same,inhibition at 25 µM,U87 (glioblastoma),43 ± 11%
same,GI50,U87 (glioblastoma),26 ± 2.1 µM
same,inhibition at 25 µM,H460 (lung carcinoma),45 ± 2%
same,GI50,H460 (lung carcinoma),28 ± 2.7 µM
"COC1=C(c2ccc3ccccc3c2)C(=O)C(OC)=C(c2ccc(OC)cc2OC)C1=O [compound 34, 2,5-Dimethoxy-3-(2,4-dimethoxyphenyl)-6-(naphthalene-3-yl)cyclohexa-2,5-diene-1,4-dione]",inhibition at 25 µM,A431 (skin carcinoma),85 ± 2%
same,GI50,A431 (skin carcinoma),15 ± 1 µM
same,inhibition at 25 µM,HT29 (colon carcinoma),82 ± 2%
same,GI50,HT29 (colon carcinoma),10.2 ± 0.3 µM
same,inhibition at 25 µM,[1],41 ± 3%
same,GI50,[1],27 ± 2.5 µM
same,inhibition at 25 µM,MCF-7 (breast carcinoma),> 100%
same,GI50,MCF-7 (breast carcinoma),6.2 ± 0.31 µM
same,melting point,,159 to 161 °C
same,inhibition at 25 µM,[2],100 ± 1%
same,GI50,[2],6.1 ± 0.03 µM
same,inhibition at 25 µM,[3],98 ± 1%
same,GI50,[3],9.7 ± 0.6 µM
same,inhibition at 25 µM,[4],99 ± 2%
same,GI50,[4],12 ± 2.4 µM
same,inhibition at 25 µM,SJ-G2 (glioblastoma),83 ± 2%
same,GI50,SJ-G2 (glioblastoma),16 µM
same,inhibition at 25 µM,[5],70 ± 1%
same,GI50,[5],18 ± 0.33 µM
same,inhibition at 25 µM,BE2-C (neuroblastoma),> 100%
same,GI50,BE2-C (neuroblastoma),9.6 ± 0.5 µM
same,inhibition at 25 µM,U87 (glioblastoma),61 ± 4%
same,GI50,U87 (glioblastoma),22 ± 2 µM
same,inhibition at 25 µM,H460 (lung carcinoma),49 ± 9%
same,GI50,H460 (lung carcinoma),35 ± 6.9 µM

# — paper PMC5936891, “A focused library synthesis and cytotoxicity of quinones derived from the natural product bolinaquinone” (Royal Society Open Science, 2018)
